Experimental data published in patent publication US20050107394A1, “Novel use of selective pde5 inhibitors” (priority 2001, published 2005).

Tested on: rabbits
Assay: Lung damage after inhaled bleomycin (characterisation of the model)
Assay type: in vivo, rabbit
Description: Healthy rabbits of both sexes were pretreated orally with a gyrase inhibitor (Baytril®) for one week. Ten animals pretreated in this way were not treated with bleomyin and served as control, and, on the day of exposure, the others were anaesthetized with a Ketanest®/Rompun® mixture, intubated intratracheally and ventilated mechanically. An ultrasonic nebulizer (MMAD 2.5 μm) was used to administer by inhalation exactly 1.8 U/kg of bodyweight of bleomycin under volume-controlled ventilation. After 4, 8, 16, 24, 32 and 64 days (in each case n≧5) post exposure, the animals were again anaesthetized, provided with an arterial access (right carotid artery) and underwent bodyweight-adapted ventilation via a tracheostomy in a volume-controlled method. The arterial pO2 and pCO2, and the static compliance of the lung were measured (by recording the intrathoracic pressure and with slow inflation/deflation manoeuvres). Subsequently, the lungs of these animals were dissected and perfused with a Krebs Hensefeit buffer. Under these conditions, the capillary filtraton coefficient (cfc) was then found from the weight gain of the organ after increasing the pulmonary venous pressure by 7.5 mmHg, and the peak ventilation pressure was found. After completion of these measurements, the left main bronchus was ligated in the end-inspiratory position and a bronchoalveolar lavage (BAL) was performed on the right lung. Subsequently, the large vessels and airways of the right lung were dissected off and the organ was homogenized. The left lung was perfusion-fixed with 4% formalin solution while maintaining a pressure gradient of 25 cm H2O and was then stored in 4% formalin until embedded. Firstly, the cells were removed from the BAL, counted and differentiated via a Papenheim stain. The cell-free BAL supernatant was then aliquoted and submitted to further analysis of the surfactant and coagulation properties and a determination of the matrix metallo proteinases (MMPs) and their inhibitors (TIMPs) and of soluble collagen. Bronchoalveolar deposition of 1.8 U/kg of bodyweight of bleomycin led initially to development of an ARDS-like event, with a massive restriction of gas exchange (paO2/FiO2 of >500 mmHg in the controls reduced to ˜110 mmHg on day 4), ground-glass opacities over all sections of the lung in the HRCT and an increase of about 5-fold in the capillary filtration coefficient (cfc). In the later phase of bleomycin-induced lung damage there was then development of pronounced fibrosis which could be confirmed on the basis of the increase in soluble collagen in the BAL and the hydroxyproline in the tissue, on the basis of the histological specimens and of the HRCT findings. […] Consistent with this, a pronounced increase in the extracellular matrix and an alveolar and also interstitial ingress of fibroblasts was observable in the histological sections. Besides the homogeneously distributed zones of fibrosis there were also thin hyperdistended sections of lung with a honeycomb appearance.

bleomycin
concentration of soluble collagen in the BAL (after 64 days): 7000 ± 2200 ng/mL | paO2/FiO2 (day 4 after 1.8 U/kg bleomycin by inhalation, controls >500 mmHg): ~110 mmHg | concentration of soluble collagen in the BAL (maximum) (day 16 after bleomycin, controls 1.1±0.4): 38300 ± 12500 ng/mL | capillary filtration coefficient (cfc), increase (early phase after 1.8 U/kg bleomycin): about 5 fold | hydroxyproline content of the tissue (from day 16 onwards): approximately doubled
